Measurements published in patent US20250110130A1, “EX VIVO PROTEASE ACTIVATION AND DETECTION” (SunBird Bio, Inc., priority 2021, published 2025).
Non-standard residues stand in square brackets, D forms with d. Primed or numbered codes have the meaning given here. No end group written: not given here. *: point of attachment. CPQ2 = fluorescent quencher, paired with 5-carboxyfluorescein; 5FAM = O=C1OC2(c3ccc(O)cc3Oc3cc(O)ccc32)c2ccc(C(=O)*)cc21; FAM = 5-carboxyfluorescein (fluorescent label); PEG2′ = PEG spacer

Key:
[1] = tested on: protease (caspase) activity in mouse plasma; experiment: Ex vivo probe assay in plasma of the Jo2 mouse model of fulminant hepatitis; type: biochemical; conditions: mouse plasma 3 hours after Jo2 injection
Description: Fulminant hepatitis is induced after injection intraperitoneal of monoclonal antibody anti-CD95 (Jo2, BD biosciences, 4 ug/animal), and mouse plasma samples were collected 3 hours after Jo2 injection.
The comparison with mass spectrometry data also aligns and confirms high concordance with the ex vivo approach, which is reassuring to confirm the existence of a biologically relevant signal.

MMP2 [2] = biological target: T1, MMP2 (Homo sapiens, UniProt P08253); experiment: Recombinant MMP2 spike-in to human K2 EDTA plasma with Zinc titration; type: biochemical; parameters: host or cells: spiked into human K2 EDTA plasma
T1 sequence (P08253 110-660): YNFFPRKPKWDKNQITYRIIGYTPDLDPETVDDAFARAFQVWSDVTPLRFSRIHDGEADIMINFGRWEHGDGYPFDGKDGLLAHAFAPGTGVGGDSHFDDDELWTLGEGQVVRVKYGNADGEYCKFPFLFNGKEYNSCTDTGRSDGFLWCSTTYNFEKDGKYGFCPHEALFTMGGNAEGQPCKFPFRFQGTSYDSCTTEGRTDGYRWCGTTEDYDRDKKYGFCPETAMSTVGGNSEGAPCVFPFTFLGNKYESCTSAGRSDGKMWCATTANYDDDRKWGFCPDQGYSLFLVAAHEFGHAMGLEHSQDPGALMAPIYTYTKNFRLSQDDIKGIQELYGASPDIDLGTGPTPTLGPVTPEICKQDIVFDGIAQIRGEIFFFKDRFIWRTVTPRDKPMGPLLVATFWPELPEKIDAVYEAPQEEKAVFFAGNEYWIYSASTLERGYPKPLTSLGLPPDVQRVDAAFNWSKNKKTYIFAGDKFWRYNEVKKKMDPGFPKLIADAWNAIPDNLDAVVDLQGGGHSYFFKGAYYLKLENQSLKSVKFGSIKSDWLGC

[3] = tested on: carboxylesterase 1, phospholipase A2 and lipoprotein lipase; experiment: Spiked recombinant enzymes in human plasma with resorufin oleate as substrate; type: biochemical
MMP2 [4] = biological target: T1, MMP2; experiment: Recombinant protease screen of probes; type: biochemical; conditions: recombinant MMP2, 1 h fluorescence read
Description: (§1) To determine different probes' ability to cleave MMPs and/or DPP4, samples were pipetted into each well in a 384 well plate. […] The plate was centrifuged again, and the plate was then placed into the plate reader for a 1 h fluorescence read.

MMP20 = biological target: T2, MMP20 (Homo sapiens, UniProt O60882); experiment: Recombinant protease screen of probes; type: biochemical; conditions: recombinant MMP20, 1 h fluorescence read
T2 sequence (O60882 108-483): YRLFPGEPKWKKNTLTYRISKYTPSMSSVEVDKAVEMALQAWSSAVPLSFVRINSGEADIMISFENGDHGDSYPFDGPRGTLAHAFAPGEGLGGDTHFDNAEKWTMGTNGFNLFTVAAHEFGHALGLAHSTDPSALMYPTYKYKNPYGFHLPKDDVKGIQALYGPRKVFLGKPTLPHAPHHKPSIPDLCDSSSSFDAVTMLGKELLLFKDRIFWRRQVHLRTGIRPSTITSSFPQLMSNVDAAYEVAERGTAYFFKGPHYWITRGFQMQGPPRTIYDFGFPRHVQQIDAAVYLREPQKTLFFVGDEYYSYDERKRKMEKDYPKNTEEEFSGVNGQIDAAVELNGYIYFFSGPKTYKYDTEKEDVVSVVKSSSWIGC
Description: as §1

[5] = tested on: MMP protease signal in mouse plasma; experiment: Zinc reactivation of MMPs in mouse plasma, healthy vs NASH; type: biochemical; conditions: for Fold change ratio, Zinc Buffer: Zinc MMP buffer
Text: To perform this experiment, samples were pipetted into each well of a 384 well plate. […] The plate was kept on ice throughout procedure. […] Then, the place was centrifuged again.
A summary table of the results can be found in Table 4.

[6] = tested on: protease activity sensed by Probe #102 (cathepsin L, CTSL) in K2 EDTA plasma; experiment: Protease inhibitor profiling of Probe #102 cleavage in NASH and healthy plasma; conditions: for effect of inhibitor on signal, in words: Probe #102, NASH and healthy plasma
Description: For this experiment, all plasma samples were prepared individually and diluted 1/10e in PBS with inhibitor added directly to the samples. Inhibitor was prepared at 15× concentration to final. Substrates were diluted in DI water at 18 uM, such that the final concentration on the plate would be 6 uM. All samples were prepared such that their last dilution on the plate would not affect the desired final concentration. 10 ul of each individual sample was pipetted into their corresponding wells, and the plate was then spun down in the centrifuge at 1500 RPM for 30 seconds to coat the bottom of each well with the sample. 5 ul of the 18 uM substrate solution was pipetted into each well being used on a 384 well plate, and then the plate was spun down in the centrifuge at 1500 rpm for 30 seconds. The plate was placed immediately in the plate reader at 37° C. for a 30-minute-long fluorescence kinetic read at 485/535 extended gain.
To assess the proteolytic cleavage pattern of Probe #102, samples were tested using a pool of broad inhibitors for serine, cysteine, threonine, MMP and aspartic protease family members (broad inhibitor) to assess general protease activity, AEBSF for serine proteases, E64 for cysteine proteases, CTSi for broad cathepsin inhibition of cathepsins L, S, K and B, or specific inhibitors for cathepsin K (L00625), for cathepsin L (SID) or cathepsin B (CA074).

MMP13 = MMP13 (Homo sapiens, UniProt P45452); experiment: Recombinant protease screen of probes; type: biochemical; conditions: recombinant MMP13, 1 h fluorescence read
Description: as §1

DPP4 = DPP4 (Homo sapiens, UniProt P27487); experiment: Recombinant protease screen of probes; type: biochemical; conditions: recombinant DPP4, 1 h fluorescence read
Description: as §1

[7] = tested on: protease activity in COVID and healthy plasma; experiment: Ex vivo probe assay in COVID and healthy plasma (K2 EDTA and Lithium Heparin); type: biochemical; conditions: K2 EDTA samples
MMPs in K2 EDTA plasma = experiment: Zinc reactivation of MMPs in human K2 EDTA plasma; type: biochemical; conditions: for protease activity recovered by Calcium compared to Zinc: Calcium up to 6 mM vs 1 mM Zinc, plasma
Text: In this experiment, MMPs are reactivated in K2 EDTA plasma that has been collected with EDTA. EDTA causes chelation of the […] ion and interferes with the stability of the MMPs and has high MMP inhibition activity in vitro. The goal of zinc addition was to reactivate potential MMPs in solution that have been inhibited due to the addition of K2 EDTA.
To reactivate the MMPs in plasma, the EDTA was completely titrated and bound to the Zinc while the excess zinc in the solution was also used as an activating agent for the MMPs. Zinc chloride (Alfa Aesar) was prepared in ddH2O and fully dissolved. The zinc chloride ([…]) solution was then diluted in an assay buffer designed for MMPs. The plasma samples were prepared in the MMP buffer and the plasma samples were combined with the ZnCl solution in a 3:1 ratio. The mixture was incubated on ice after being combined. While the samples were incubating, the related substrates were prepared for analysis. Substrates used in this experiment were Probes #117, 263, 349, and 417. Samples were added to a substrate of interest once the sample incubation was complete. The mixture was spun, and results were read on a Biotek Synergy H1 at Ex/Em=485/535 using extended dynamic range.

DPP4, sequence (P27487 whole entry, species assumed): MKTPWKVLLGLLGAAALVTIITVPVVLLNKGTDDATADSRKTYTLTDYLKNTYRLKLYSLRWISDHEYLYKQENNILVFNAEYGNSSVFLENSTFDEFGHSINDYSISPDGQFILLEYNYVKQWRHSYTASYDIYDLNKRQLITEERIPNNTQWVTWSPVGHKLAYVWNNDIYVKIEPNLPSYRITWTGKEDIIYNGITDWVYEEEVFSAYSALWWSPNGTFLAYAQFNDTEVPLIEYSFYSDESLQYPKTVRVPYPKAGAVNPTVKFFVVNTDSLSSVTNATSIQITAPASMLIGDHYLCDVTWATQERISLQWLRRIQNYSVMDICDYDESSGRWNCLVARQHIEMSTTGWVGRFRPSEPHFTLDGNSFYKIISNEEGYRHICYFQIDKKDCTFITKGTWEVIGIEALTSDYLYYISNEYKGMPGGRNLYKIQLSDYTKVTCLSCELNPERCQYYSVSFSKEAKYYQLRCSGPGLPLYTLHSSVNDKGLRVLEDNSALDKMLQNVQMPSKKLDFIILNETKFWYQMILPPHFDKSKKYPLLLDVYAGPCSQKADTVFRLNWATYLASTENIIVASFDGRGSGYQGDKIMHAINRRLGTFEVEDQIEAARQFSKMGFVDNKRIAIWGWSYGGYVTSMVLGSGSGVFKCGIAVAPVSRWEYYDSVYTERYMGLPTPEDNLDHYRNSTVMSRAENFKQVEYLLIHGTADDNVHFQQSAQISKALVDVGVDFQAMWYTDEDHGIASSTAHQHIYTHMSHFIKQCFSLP

Probe #8: Caspase centric probe (5FAM-GVDVADGK(CPQ2)[PEG2′][dK][dK]GC; also: 5-FAM, CPQ2 quencher, PEG2, D-Lys-D-Lys-GC)
contrast between healthy and Jo2 samples [1]: show contrast that is specific and sensitive to the Jo2 model

O=C([O-])CN(CCN(CC(=O)O)CC(=O)O)CC(=O)[O-].[K+].[K+] [K2 EDTA]
activity of recombinant MMP2 spiked into human K2 EDTA plasma (MMP2 [2]): completely deactivated

CCCC(=O)O [butyrate]
suitability as substrate for detection of enzymes [3]: promising for detection of broad range of enzymes

Probe #117: probe whose peptide linker is SEQ ID No 117 ({FAM}-GAALHNDGK(CPQ2)[PEG2′][dK][dK]-NH2; also: FAM, CPQ2 quencher, PEG2, D-Lys-D-Lys, amide)
protease sensed by probe (MMP2 [4]): sensed | protease sensed by probe (MMP20): sensed | Fold change ratio, Zinc Buffer [5]: 2.11 | Fold change ratio, Normal Buffer [5]: 1.47

NCCc1ccc(S(=O)(=O)F)cc1 [AEBSF]
decrease of signal in NASH samples by inhibitor ([6]; Probe #102, NASH plasma): 65% | decrease of signal in healthy samples by inhibitor ([6]; Probe #102, healthy plasma): 60%

CN1CCN(c2nc(-c3ccc(C(=O)NC4(C(=O)NCC#N)CCCCC4)cc3)cs2)CC1 [Probe L006235]
effect of inhibitor on signal, in words [6]: did not significantly decrease signal

CC(C)C[C@H](NC(=O)[C@H]1O[C@@H]1C(=O)O)C(=O)NCCCCN=C(N)N [Probe E64, E64]
effect of inhibitor on signal, in words [6]: decreased NASH signal significantly

Probe #263: probe whose peptide linker is SEQ ID No 263 ({FAM}-GQKAAWDGK(CPQ2)-NH2; also: FAM, CPQ2 quencher)
protease sensed by probe (MMP13): sensed | Fold change ratio, Zinc Buffer [5]: 2.09 | Fold change ratio, Normal Buffer [5]: 1.7

Probe #411: probe of Table 1; sensed DPP4 (5FAM-GAAFAGK(CPQ2)[PEG2′][dK][dK]GC; also: 5-FAM, CPQ2 quencher, PEG2, D-Lys-D-Lys-GC)
protease sensed by probe (DPP4): sensed | Fold change ratio, Zinc Buffer [5]: 2.52 | Fold change ratio, Normal Buffer [5]: 1.88

CCCNC(=O)[C@H]1O[C@@H]1C(=O)N[C@H](C(=O)N1CCC[C@H]1C(=O)O)[C@@H](C)CC [CA074]
effect of inhibitor on signal, in words [6]: did not significantly decrease signal

Probe #409: the SARS CoV2 coronavirus substrate (SARS-COV2 3C protease) (GTSAVLQSGFRKGK; also: 5-FAM, CPQ2 quencher, PEG2-kk-GC)
contrast between COVID and healthy samples [7]: modest contrast

Resorufin oleate
suitability as substrate for detection of enzymes [3]: promising for detection of broad range of enzymes

Probe #12: Caspase centric probe (5FAM-GDEVDGK(CPQ2)[PEG2′][dK][dK]GC; also: 5-FAM, CPQ2 quencher, PEG2, D-Lys-D-Lys-GC)
contrast between healthy and Jo2 samples [1]: show contrast that is specific and sensitive to the Jo2 model

[Cl-].[Cl-].[Zn+2] [Zinc, Zinc chloride]
optimal Zinc concentration (MMPs in K2 EDTA plasma; across all vendors tested, Probe #349): 1 mM | activity of recombinant MMP2 spiked into human K2 EDTA plasma (MMP2 [2]): capable of reviving the MMP2 activity in plasma

[Ca] [Calcium]
protease activity recovered by Calcium compared to Zinc (MMPs in K2 EDTA plasma): minimal protease activity is recovered | protease activity recovered by Calcium compared to Zinc (MMPs in K2 EDTA plasma; listed as calcium): does not show similar activation effects
